According to US9758459B2, “Allosteric modulators of factor XIa as anticoagulant agents” (VIRGINIA COMMONWEALTH UNIVERSITY, priority 2012, dated 2017):
Values joined by “and” are separate entries in the source; they are usually repeats but may differ in a detail not shown here. Equal entries are not always repeated. Where two headings read alike, the source gives them in different places.

Key:
Type in all cases: biochemical
human factor XIa = target: T1, human factor XIa (Homo sapiens, UniProt P03951); assay: Direct inhibition of factor XIa, chromogenic substrate S-2366 hydrolysis assay
T1 construct: purchased Haematologic Technologies (Essex Junction, Vt.); host or cells: human plasma
T1 sequence (P03951 19-387 limits assumed): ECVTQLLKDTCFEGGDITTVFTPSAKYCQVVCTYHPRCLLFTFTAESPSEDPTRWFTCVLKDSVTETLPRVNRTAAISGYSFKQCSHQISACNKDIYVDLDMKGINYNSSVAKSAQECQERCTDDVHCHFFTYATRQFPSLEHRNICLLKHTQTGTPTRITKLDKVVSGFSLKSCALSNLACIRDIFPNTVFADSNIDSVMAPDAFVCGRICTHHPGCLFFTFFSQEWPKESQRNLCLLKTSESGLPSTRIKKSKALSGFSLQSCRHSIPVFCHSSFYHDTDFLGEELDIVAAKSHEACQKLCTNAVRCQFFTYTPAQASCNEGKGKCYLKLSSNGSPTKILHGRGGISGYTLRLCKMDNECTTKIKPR
T1 sequence (P03951 388-625 limits assumed): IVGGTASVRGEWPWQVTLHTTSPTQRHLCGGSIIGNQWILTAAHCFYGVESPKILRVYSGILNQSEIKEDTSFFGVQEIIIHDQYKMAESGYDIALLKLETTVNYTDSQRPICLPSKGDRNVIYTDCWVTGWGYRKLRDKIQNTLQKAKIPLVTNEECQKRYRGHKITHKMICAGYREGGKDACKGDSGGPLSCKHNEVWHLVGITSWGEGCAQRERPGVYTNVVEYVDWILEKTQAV
Description: Solvent A consisted of 25 mM n-hexylamine in water containing 0.1% (v/v) formic acid, while solvent B consisted of 25 mM n-hexylamine in acetonitrile-water mixture (3:1 v/v) containing 0.1% (v/v) formic acid. […] The sample was first monitored for absorbance in the range of 190-400 nm and then directly introduced into the mass spectrometer. ESI-MS detection was performed in positive ion mode for which the capillary voltage was 4 kV, cone voltage was 20 V, desolvation temperature was 350° C. and nitrogen gas flow was maintained at 650 L/hr. Mass scans were collected in the range of 1000-2048 amu within 0.25 s and several of these added to enhanced signal-to-noise ratio. Direct Inhibition of Factor XIa. […] After 10 min incubation, 5 μL factor XIa substrate (345 μM) was rapidly added and the residual FXIa activity was measured from the initial rate of increase in absorbance at 405 nm. […] Relative residual FXIa activity at each concentration of the inhibitor was calculated from the ratio of FXIa activity in the presence and absence of the inhibitor. Logistic equation 1 was used to fit the dose-dependence of residual protease activity to obtain the potency (IC50) and efficacy (ΔY) of inhibition.
Direct Inhibition of Factor XIa by Sulfated QAOs was performed as described in Example 1.
The ability of the sulfated inositol analogs to inhibit factor XIa was studied using the in vitro assay described in Example 1. In this assay, the factor XIa enzyme is anticipated to hydrolyze a particular peptide linkage in the corresponding peptide substrate releasing p-nitroaniline which absorbs at wavelength of 405 nm giving a line slope corresponds to the enzyme activity. The line slope of no inhibitor status is considered as a reference slope and it depends on the relative concentrations of factor XIa enzyme and its substrate. Factor XIa enzyme concentration was decided to get appropriate reference slope of approximately 25-35, whereas the substrate concentration was set to be larger than its affinity to factor XIa enzyme under equilibrium condition, Km. In presence of potential factor XIa inhibitor, the enzyme capacity to hydrolyze the designated peptide linkage in the substrate gets diminished or completely abolished depending on the inhibitor concentration and efficacy. […] Such decreased slope reflects a drop in the catalytic enzyme activity of factor XIa.

human plasma [1] = assay: Activated partial thromboplastin time (APTT) plasma clotting assay; conditions: human plasma, concentration doubling clotting time
Description: (§1) Plasma clotting assays, prothrombin and activated partial thromboplastin time (PT and APTT, respectively), are routinely used to assess the anticoagulation potential of new enzyme inhibitors in an in vitro setting. Whereas PT measures the effect of an inhibitor on the extrinsic pathway of coagulation, APTT measures the effect on the intrinsic pathway.
(§2) Prothrombin Time (PT) and Activated Partial Thromboplastin Time (APTT) were assessed as described in Example 1.

human plasma [2] = assay: Prothrombin time (PT) plasma clotting assay; conditions: for 2 × PT: concentration doubling clotting time
Description: as §1, §2

FXIa wild type (FXIa-WT) = target: T2, FXIa wild type (FXIa-WT) (Homo sapiens, UniProt P03951); assay: Michaelis-Menten kinetics of S-2366 hydrolysis by full-length factor XIa; conditions: 14S 135 μM, pH 7.4, 37° C.
T2 construct: made in house; host or cells: HEK-293
T2 sequence (P03951 19-387 limits assumed): as the sequence (P03951 19-387 limits assumed) above
T2 sequence (P03951 388-625 limits assumed): as the sequence (P03951 388-625 limits assumed) above
Description: Plasma FIX (500 nM) was incubated with human FXIa (3 nM) in 50 mM Hepes buffer, pH 7.4, containing 125 mM NaCl, 5 mM CaCl2, and 0.1 mg/mL bovine serum albumin at 24° C. […] The primary antibody was goat anti-human FIX polyclonal IgG (Enzyme Research Laboratories, South Bend, Tenn.), and the secondary antibody was horseradish peroxidase-conjugated anti-goat IgG. Detection was by chemiluminescence. […] The inhibition profile was determined over a range of inhibitor concentrations to determine the IC50 of the enzyme-inhibitor complex. The KM of the substrate for its enzyme was used to identify the concentration of the substrate to be used for inhibition studies. […] Active site concentrations for preparations of FXIa were determined by titrations with human antithrombin in an S-2366 cleavage assay. The reaction was monitored using a SpectraMax 340 microtiter plate reader (Molecular Devices Corp., Sunnyvale, Calif.) with a reaction volume of 100 μL and path length of 3 mm. Each assay was performed in triplicate. The concentration of S-2366 was measured using an absorption coefficient of 8,266 M-1cm-1 at λ342 nm, while the free p-nitroaniline concentration was calculated using an absorption coefficient of 9,933 M cm^−1 at λ405 nm. The data was fitted using the standard Michaelis-Menten equation to determine the KM and VMAX. Results

[3] = sulfated QAOs, pH 7.4, 37° C., read-out: IC50 (converted)

Compound	IC50 (human factor XIa; [3])	ΔY % (efficacy) (human factor XIa; sulfated QAOs) [%]	also measured
CC(=O)Oc1cccc(-c2nc3ccccc3c(=O)n2Cc2cn(CCCCn3c(-c4cccc(OS(=O)(=O)O)c4)nc4ccccc4c3=O)nn2)c1 [Inhibitor 7S]	> 1000 µM	–	factor XIa inhibition (in words) (human factor XIa; pH 7.4, 37° C.): inactive
O=c1c2ccccc2nc(-c2ccc(OS(=O)(=O)O)cc2)n1CCCCCn1nncc1Cn1c(-c2ccc(OS(=O)(=O)O)cc2)nc2ccccc2c1=O [Inhibitor 29S]	94 µM and 90 µM	94 ± 1	–
COc1cc(-c2nc3ccccc3c(=O)n2CCCCn2cc(Cn3c(-c4cccc(OS(=O)(=O)O)c4)nc4ccccc4c3=O)nn2)ccc1OS(=O)(=O)O [Inhibitor 17S]	182 ± 1 µM	88 ± 5	–
O=c1c2ccccc2nc(-c2ccc(OS(=O)(=O)O)cc2)n1Cc1cn(CCn2cc(Cn3c(-c4ccc(OS(=O)(=O)O)cc4)nc4ccccc4c3=O)nn2)nn1 [Inhibitor 28S]	–	98 ± 3	–
COc1cc(OS(=O)(=O)O)cc2oc(-c3ccc(OS(=O)(=O)O)c(OCc4cn(CCCCn5c(-c6cccc(OS(=O)(=O)O)c6)nc6ccccc6c5=O)nn4)c3)c(OS(=O)(=O)O)c(=O)c12 [Inhibitor 25S]	> 1000 µM	–	–
O=c1c2ccccc2nc(-c2ccc(OS(=O)(=O)O)cc2)n1CCCCCn1cc(Cn2c(-c3ccc(OS(=O)(=O)O)cc3)nc3ccccc3c2=O)nn1 [Inhibitor 15S]	59 µM	89 ± 2	2 × APTT (human plasma [1]): 1062 µM; 2 × PT (human plasma [2]): 1684 µM
O=c1c2ccccc2nc(-c2cccc(OS(=O)(=O)O)c2)n1CCCCn1cc(Cn2c(-c3ccc(OS(=O)(=O)O)cc3)nc3ccccc3c2=O)nn1 [Inhibitor 14S]	91 µM	103 ± 5	VMAX (FXIa wild type (FXIa-WT)): 5.1±0.5 mAU/min
CC(=O)Oc1cc(OS(=O)(=O)O)cc(-c2nc3ccccc3c(=O)n2Cc2cn(CCCCn3c(-c4cccc(OS(=O)(=O)O)c4)nc4ccccc4c3=O)nn2)c1 [Inhibitor 9S]	153 µM	96 ± 1	–
O=c1c2ccccc2nc(-c2ccc(OS(=O)(=O)O)cc2)n1CCCCn1cc(Cn2c(-c3ccc(OS(=O)(=O)O)cc3)nc3ccccc3c2=O)nn1 [Inhibitor 13S]	82 µM and ~80 µM	91 ± 2	2 × APTT (human plasma [1]): 979 µM; concentration for 2-fold increase in PT (human plasma [2]): about 1.12 mM; 2 × PT (human plasma [2]): 1119 µM
O=c1c2ccccc2nc(-c2cccc(OS(=O)(=O)O)c2)n1CCCn1cc(Cn2c(-c3cccc(OS(=O)(=O)O)c3)nc3ccccc3c2=O)nn1 [Inhibitor 11S]	–	91 ± 4	–
COc1cc(-c2nc3ccccc3c(=O)n2CCCCn2cc(Cn3c(-c4ccc(OS(=O)(=O)O)c(OC)c4)nc4ccccc4c3=O)nn2)ccc1OS(=O)(=O)O [Inhibitor 10S]	139 ± 1 µM	95 ± 1	–
CC(=O)Oc1cc(OS(=O)(=O)O)cc(-c2nc3ccccc3c(=O)n2CCCCn2cc(Cn3c(-c4cc(OS(=O)(=O)O)cc(OS(=O)(=O)O)c4)nc4ccccc4c3=O)nn2)c1 [Inhibitor 19S]	273 ± 3 µM	91 ± 2	–
O=c1c2ccccc2nc(-c2ccc(OS(=O)(=O)O)cc2)n1CCCCn1cc(Cn2c(-c3cccc(OS(=O)(=O)O)c3)nc3ccccc3c2=O)nn1 [Inhibitor 12S]	159 ± 2 µM	88 ± 3	–
O=C(OC1C(OC(=O)c2cc(OS(=O)(=O)O)cc(OS(=O)(=O)O)c2)C(OC(=O)c2cc(OS(=O)(=O)O)cc(OS(=O)(=O)O)c2)C(OC(=O)c2cc(OS(=O)(=O)O)cc(OS(=O)(=O)O)c2)C(OC(=O)c2cc(OS(=O)(=O)O)cc(OS(=O)(=O)O)c2)C1OC(=O)c1cc(OS(=O)(=O)O)cc(OS(=O)(=O)O)c1)c1cc(OS(=O)(=O)O)cc(OS(=O)(=O)O)c1 (stereo not drawn) [SMI, Sulfated hexa-substituted myo-inositol]	–	–	IC50 (human factor XIa; read-out: FXIa-IC50): 0.09 µM
COc1cc(-c2nc3ccccc3c(=O)n2CCCCn2cc(COc3cc(-c4oc5cc(OS(=O)(=O)O)cc(OC)c5c(=O)c4OS(=O)(=O)O)ccc3OS(=O)(=O)O)nn2)ccc1OS(=O)(=O)O [Inhibitor 26S]	216 µM	–	–
O=c1c2ccccc2nc(-c2cccc(OS(=O)(=O)O)c2)n1CCCCn1cc(Cn2c(-c3cc(OS(=O)(=O)O)cc(OS(=O)(=O)O)c3)nc3ccccc3c2=O)nn1 [Inhibitor 18S]	213 ± 2 µM	93 ± 2	–
O=C(OC[C@H]1O[C@@H](OC(=O)c2cc(O)c(O)c(O)c2)[C@H](OC(=O)c2cc(O)c(O)c(O)c2)[C@@H](OC(=O)c2cc(O)c(O)c(O)c2)[C@@H]1OC(=O)c1cc(O)c(O)c(O)c1)c1cc(O)c(O)c(O)c1 [Inhibitor 5, pentagalloyl glucopyranoside, reference compound]	–	–	inhibition of FXIa proteolytic activity (human factor XIa; highest concentration tested (300 μM)): completely inactive
O=c1c2ccccc2nc(-c2cc(OS(=O)(=O)O)cc(OS(=O)(=O)O)c2)n1CCCCn1cc(Cn2c(-c3cc(OS(=O)(=O)O)cc(OS(=O)(=O)O)c3)nc3ccccc3c2=O)nn1 [Inhibitor 20S]	> 1000 µM	–	–
O=c1c2ccccc2nc(-c2cccc(OS(=O)(=O)O)c2)n1CCCCn1cc(Cn2c(-c3cccc(OS(=O)(=O)O)c3)nc3ccccc3c2=O)nn1 [Inhibitor 8S]	–	100 ± 6	–
